# Experimental data taken from patent US8927587B2, “Chemical compounds” (Pfizer Limited, priority 2012, dated 2015).
# Target: T1, hNav1.8 (Homo sapiens, UniProt Q9Y5Y9)
# T1 construct: host or cells: HEK cells, stably transfected
# Assay: hNav1.8 whole-cell patch-clamp electrophysiology (conventional or PatchXpress 7000) in stably transfected HEK cells
# Format: cell-based
# Conditions: estimated IC50 calculated from single point % inhibition; HEK cells expressing hNav1.8; 8 sec prepulse to V1/2, 20 msec step to 0 mV; average of replicates; read-out: Nav1.8 EIC50
# Excerpt: The ability of the benzimidazole derivatives of the formula (I) to inhibit the Nav1.8 channel may be measured using the assay described below.
# HEK cells stably transfected with hNav1.8, purchased from Millipore (Millipore Corp., Billerica, Mass. 01821), were maintained according to manufacturer's instructions. For electrophysiological studies, cells were removed from the culture flask by brief trypsinization and re-plated at low density onto glass cover slips. Cells were typically used for electrophysiological experiments within 24 to 72 h after plating.
# Cover slips containing HEK cells expressing hNav1.8 were placed in a bath on the stage of an inverted microscope and perfused (approximately 1 ml/min) with extracellular solution of the following composition: 138 mM NaCl, 2 mM CaCl2, 5.4 mM KCl, 1 mM MgCl2, 10 mM glucose, and 10 mM HEPES, pH 7.4, with NaOH. […] The osmolarity of the extracellular and intracellular solutions was 300 mOsm/kg and 295 mOsm/kg, respectively. All recordings were made at room temperature (22-24° C.) using AXOPATCH 200B amplifiers and PCLAMP software (Axon Instruments, Burlingame, Calif.).
# hNav1.8 currents in HEK cells were measured using the whole-cell configuration of the patch-clamp technique (Hamill et al., 1981). Uncompensated series resistance was typically 2 to 5 mega ohms and >85% series resistance compensation was routinely achieved. As a result, voltage errors were negligible and no correction was applied. Current records were acquired at 20 to 50 KHz and filtered at 5 to 10 KHz.
# HEK cells stably transfected with hNav1.8 were viewed under Hoffman contrast optics and placed in front of an array of flow pipes emitting either control or compound-containing extracellular solutions. All compounds were dissolved in dimethyl sulfoxide to make 10 mM stock solutions, which were then diluted into extracellular solution to attain the final concentrations desired.
# The voltage-dependence of inactivation was determined by applying a series of depolarizing prepulses (8 sec long in 10 mV increments) from a negative holding potential. The voltage was then immediately stepped to 0 mV to assess the magnitude of the sodium current. Currents elicited at 0 mV were plotted as a function of prepulse potential to allow estimation of the voltage at which 50% of the channels were inactivated (midpoint of inactivation or V1/2). Compounds were tested for their ability to inhibit hNav1.8 sodium channels by activating the channel with a 20 msec voltage step to 0 mV following an 8 second conditioning prepulse to the empirically determined V1/2. Compound effect (% inhibition) was determined by difference in current amplitude before and after application of test compounds. For ease of comparison, “estimated IC50” values were calculated from single point electrophysiology data by the following equation, (tested concentration, uM)×(100-% inhibition/% inhibition). Inhibition values<20% and >80% were excluded from the calculation.
# In some cases electrophysiological assays were conducted with PatchXpress 7000 hardware and associated software (Molecular Devices Corp). All assay buffers and solutions were identical to those used in conventional whole-cell voltage clamp experiments described above. hNav1.8 cells were grown as above to 50%-80% confluency and harvested by trypsinization. Trypsinized cells were washed and resuspended in extracellular buffer at a concentration of 1×10^6 cells/ml. The onboard liquid handling facility of the PatchXpress was used for dispensing cells and application of test compounds. Determination of the voltage midpoint of inactivation was as described for conventional whole-cell recordings. Cells were then voltage-clamped to the empirically determined V1/2 and current was activated by a 20 msec voltage step to 0 mV.
# Estimated IC50 values for the compounds of formula (I) exemplified above are as follows. […]
# T1 sequence (Q9Y5Y9 whole entry): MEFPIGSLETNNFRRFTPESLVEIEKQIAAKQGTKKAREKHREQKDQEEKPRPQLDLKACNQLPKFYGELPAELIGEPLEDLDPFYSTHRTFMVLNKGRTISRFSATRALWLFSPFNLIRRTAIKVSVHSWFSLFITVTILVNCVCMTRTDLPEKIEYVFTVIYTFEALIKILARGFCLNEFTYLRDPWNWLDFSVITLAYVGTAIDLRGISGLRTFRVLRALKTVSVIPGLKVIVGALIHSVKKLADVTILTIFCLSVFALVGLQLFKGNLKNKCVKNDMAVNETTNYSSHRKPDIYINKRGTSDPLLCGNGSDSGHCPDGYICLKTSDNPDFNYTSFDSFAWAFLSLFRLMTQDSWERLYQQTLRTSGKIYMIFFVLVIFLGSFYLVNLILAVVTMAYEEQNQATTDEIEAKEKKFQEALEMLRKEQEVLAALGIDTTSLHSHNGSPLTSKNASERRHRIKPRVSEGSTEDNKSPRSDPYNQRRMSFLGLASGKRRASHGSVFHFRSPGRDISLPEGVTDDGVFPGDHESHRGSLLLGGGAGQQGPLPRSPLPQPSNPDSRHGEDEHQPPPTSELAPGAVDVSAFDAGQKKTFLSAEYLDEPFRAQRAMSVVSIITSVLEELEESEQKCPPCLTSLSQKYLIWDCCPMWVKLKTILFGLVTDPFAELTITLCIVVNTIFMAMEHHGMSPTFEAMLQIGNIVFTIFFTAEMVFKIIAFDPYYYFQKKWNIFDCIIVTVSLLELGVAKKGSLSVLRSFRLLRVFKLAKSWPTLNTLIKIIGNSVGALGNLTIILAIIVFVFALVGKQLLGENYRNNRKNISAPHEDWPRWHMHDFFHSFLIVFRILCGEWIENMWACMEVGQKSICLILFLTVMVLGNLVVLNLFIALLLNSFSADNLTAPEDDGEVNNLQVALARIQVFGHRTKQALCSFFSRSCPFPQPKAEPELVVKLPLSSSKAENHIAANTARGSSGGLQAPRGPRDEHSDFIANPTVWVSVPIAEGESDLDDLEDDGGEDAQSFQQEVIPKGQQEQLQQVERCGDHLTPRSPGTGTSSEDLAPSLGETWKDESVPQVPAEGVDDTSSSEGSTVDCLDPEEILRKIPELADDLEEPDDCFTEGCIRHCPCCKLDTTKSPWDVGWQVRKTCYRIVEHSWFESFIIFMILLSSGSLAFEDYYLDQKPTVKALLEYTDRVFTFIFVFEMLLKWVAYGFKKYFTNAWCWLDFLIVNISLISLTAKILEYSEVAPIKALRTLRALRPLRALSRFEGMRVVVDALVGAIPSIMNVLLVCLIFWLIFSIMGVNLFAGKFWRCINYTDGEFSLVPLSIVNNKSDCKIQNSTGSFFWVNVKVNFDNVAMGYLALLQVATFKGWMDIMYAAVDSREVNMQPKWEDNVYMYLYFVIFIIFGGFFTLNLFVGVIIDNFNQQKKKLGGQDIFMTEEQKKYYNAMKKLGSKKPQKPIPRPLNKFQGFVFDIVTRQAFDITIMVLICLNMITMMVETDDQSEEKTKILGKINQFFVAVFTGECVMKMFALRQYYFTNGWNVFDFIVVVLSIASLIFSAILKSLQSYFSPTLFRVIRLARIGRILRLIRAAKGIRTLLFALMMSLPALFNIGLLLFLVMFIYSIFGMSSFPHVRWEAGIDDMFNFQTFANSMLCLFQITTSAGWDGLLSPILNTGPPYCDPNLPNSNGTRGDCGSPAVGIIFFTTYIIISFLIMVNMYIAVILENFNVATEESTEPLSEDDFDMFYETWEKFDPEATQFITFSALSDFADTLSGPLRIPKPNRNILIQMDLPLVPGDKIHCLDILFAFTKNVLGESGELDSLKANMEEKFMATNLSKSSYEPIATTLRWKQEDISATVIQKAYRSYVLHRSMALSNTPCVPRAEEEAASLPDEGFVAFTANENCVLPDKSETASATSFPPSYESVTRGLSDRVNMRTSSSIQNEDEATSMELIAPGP
row,SMILES,IC50
1,"CO[C@H](C)[C@H](N)c1nc2cc(-c3ccccc3C#N)ccc2[nH]1 [Example 77, 2-{2-[(1R,2R)-1-Amino-2-methoxypropyl]-1H-benzimidazol-5-yl}benzonitrile]",483 nM
2,"C[C@@H](O)[C@H](N)c1nc2cc(C(C)(C)C)ccc2[nH]1 [Example 78, (1R,2R)-1-Amino-1-(5-tert-butyl-1H-benzimidazol-2-yl)propan-2-ol]",59.3 nM
3,"CN[C@H](c1nc2cc(C(C)(C)C)ccc2[nH]1)[C@@H](C)O [Example 79, (1R,2R)-1-(5-tert-Butyl-1H-benzimidazol-2-yl)-1-(methylamino)propan-2-ol]",168 nM
4,"CC(C)(C)c1ccc2[nH]c([C@](C)(N)CO)nc2c1 [Example 80, (2S)-2-Amino-2-(5-tert-butyl-1H-benzimidazol-2-yl)propan-1-ol]",87.6 nM
5,"CC[C@H](N)c1nc2cc(-c3ccc(C#N)cc3)ccc2[nH]1 [Example 81, 4-{2-[(1S)-1-Aminopropyl]-1H-benzimidazol-5-yl}benzonitrile]",82.8 nM
6,"N#Cc1ccc(-c2ccc3[nH]c([C@@H](N)CO)nc3c2)cc1 [Example 82, 4-{2-[(1R)-1-Amino-2-hydroxyethyl]-1H-benzimidazol-5-yl}benzonitrile]",323 nM
7,"CO[C@H](C)[C@@H](N)c1nc2cc(C(C)(C)C)ccc2[nH]1 [Example 83, (1S,2R)-1-(5-tert-Butyl-1H-benzimidazol-2-yl)-2-methoxypropan-1-amine]",872 nM
8,"CO[C@H](C)[C@H](N)c1nc2cc(-c3ccc(C#N)cc3Cl)ccc2[nH]1 [Example 84, 4-{2-[(1R,2R)-1-Amino-2-methoxypropyl]-1H-benzimidazol-5-yl}-3-chlorobenzonitrile]",81.9 nM
9,"CO[C@H](C)[C@H](N)c1nc2cc(-c3ccc(C#N)c(F)c3)ccc2[nH]1 [Example 85, 4-{2-[(1R,2R)-1-Amino-2-methoxypropyl]-1H-benzimidazol-5-yl}-2-fluorobenzonitrile]",10.5 nM
10,"CO[C@H](C)[C@H](N)c1nc2cc(-c3ccc(C#N)cc3C(F)(F)F)ccc2[nH]1 [Example 86, 4-{2-[(1R,2R)-1-Amino-2-methoxypropyl]-1H-benzimidazol-5-yl}-3-(trifluoromethyl)-benzonitrile]",111 nM
11,"CO[C@H](C)[C@H](N)c1nc2cc(-c3cc(F)c(C#N)c(F)c3)ccc2[nH]1 [Example 87, 4-{2-[(1R,2R)-1-Amino-2-methoxypropyl]-1H-benzimidazol-5-yl}-2,6-difluorobenzonitrile]",1330 nM
12,"C[C@@H](O)[C@H](N)c1nc2cc(-c3ccc(C#N)c(C#N)c3)ccc2[nH]1 [Example 88, 4-{2-[(1R,2R)-1-Amino-2-hydroxypropyl]-1H-benzimidazol-5-yl}benzene-1,2-dicarbonitrile]",993 nM
13,"C[C@@H](O)[C@H](N)c1nc2cc(-c3cc(F)c(C#N)c(F)c3)ccc2[nH]1 [Example 89, 4-{2-[(1R,2R)-1-Amino-2-hydroxypropyl]-1H-benzimidazol-5-yl}-2,6-difluorobenzonitrile]",2390 nM
14,"CO[C@H](C)[C@H](N)c1nc2cc(-c3ccc(C#N)cc3F)ccc2[nH]1 [Example 90, 4-{2-[(1R,2R)-1-Amino-2-methoxypropyl]-1H-benzimidazol-5-yl}-3-fluorobenzonitrile]",18.7 nM
15,"CO[C@H](C)[C@H](N)c1nc2cc(-c3ccc(C#N)cc3)c(F)cc2[nH]1 [Example 91, 4-{2-[(1R,2R)-1-Amino-2-methoxypropyl]-6-fluoro-1H-benzimidazol-5-yl}benzonitrile]",666 nM
16,"CO[C@H](C)[C@H](N)c1nc2cc(-c3ccc(C#N)cc3)ccc2[nH]1 [Example 92, 4-{2-[(1R,2R)-1-Amino-2-methoxypropyl]-1H-benzimidazol-5-yl}benzonitrile]",17.5 nM

row,SMILES,IC50
1,"CO[C@@H](C)[C@@H](N)c1nc2cc(-c3ccc(C#N)cc3)ccc2[nH]1 [Example 93, 4-{2-[(1S,2S)-1-Amino-2-methoxypropyl]-1H-benzimidazol-5-yl}benzonitrile]",746 nM
2,"CO[C@@H](C)[C@@H](N)c1nc2cc(C(C)(C)C)ccc2[nH]1 [Example 94, (1S,2S)-1-(5-tert-Butyl-1H-benzimidazol-2-yl)-2-methoxypropan-1-amine]",1080 nM
3,"CC(C)c1ccc2[nH]c([C@@H](N)CC(N)=O)nc2c1 [Example 95, (3S)-3-Amino-3-[5-(propan-2-yl)-1H-benzimidazol-2-yl]propanamide]",3310 nM
4,"CO[C@H](C)[C@H](N)c1nc2cc(CC(C)(C)C)c(F)cc2[nH]1 [Example 96, (1R,2R)-1-[5-(2,2-Dimethylpropyl)-5-fluoro-1H-benzimidazol-2-yl]-2-methoxypropan-1-amine]",188 nM
5,"CC[C@@H](N)c1nc2cc(C(C)(C)C)ccc2[nH]1 [Example 97, (1R)-1-(5-tert-Butyl-1H-benzimidazol-2-yl)propan-1-amine]",151 nM
6,"C[C@@H](O)[C@H](N)c1nc2c(F)c(-c3ccc(C#N)cc3)ccc2[nH]1 [Example 98, 4-{2-[(1R,2R)-1-Amino-2-hydroxypropyl]-4-fluoro-1H-benzimidazol-5-yl}benzonitrile]",1350 nM
7,"C[C@@H](O)[C@H](N)c1nc2c(Cl)c(-c3ccc(C#N)cc3)ccc2[nH]1 [Example 99, 4-{2-[(1R,2R)-1-Amino-2-hydroxypropyl]-4-chloro-1H-benzimidazol-5-yl}benzonitrile]",2490 nM
8,"C[C@@H](O)[C@H](N)c1nc2cc(-c3ccc(C#N)cc3C(F)(F)F)ccc2[nH]1 [Example 100, 4-{2-[(1R,2R)-1-Amino-2-hydroxypropyl]-1H-benzimidazol-5-yl}-3-(trifluoromethyl)benzonitrile]",82.5 nM
9,"C[C@@H](O)[C@H](N)c1nc2cc(-c3ccc(C#N)cc3F)ccc2[nH]1 [Example 101, 4-{2-[(1R,2R)-1-Amino-2-hydroxypropyl]-1H-benzimidazol-5-yl}-3-fluorobenzonitrile]",200 nM
10,"CC(C)(C)c1ccc2[nH]c([C@@H](N)C(C)(C)O)nc2c1 [Example 102, (1R)-1-Amino-1-(5-tert-butyl-1H-benzimidazol-2-yl)-2-methylpropan-2-ol]",71 nM
11,"[2H][13C]([2H])([2H])[C@@H](C(N)=O)[C@H](N)c1nc2cc(C(C)(C)C)ccc2[nH]1 [Example 105, (2R,3S)-3-Amino-3-(5-tert-butyl-1H-benzimidazol-2-yl)-2-(^13CD3-methyl)propanamide]",69.9 nM
12,"C[C@H](OC(N)=O)[C@H](N)c1nc2cc(C(C)(C)C)ccc2[nH]1 [Example 106, (1R,2S)-1-Amino-1-(5-tert-butyl-1H-benzimidazol-2-yl)propan-2-yl carbamate]",35 nM
13,"C[C@@H](OC(N)=O)[C@H](N)c1nc2cc(C(C)(C)C)ccc2[nH]1 [Example 107, (1R,2R)-1-Amino-1-(6-tert-butyl-1H-benzimidazol-2-yl)propan-2-yl carbamate]",356 nM
14,"CNC(=O)[C@H](C)[C@H](N)c1nc2cc(C(C)(C)C)ccc2[nH]1 [Example 108, (2R,3S)-3-Amino-3-(6-tert-butyl-1H-benzimidazol-2-yl)-N,2-dimethylpropanamide]",207 nM
15,"C[C@@H](C(N)=O)[C@H](N)c1nc2cc(-c3ccc(C#N)c(F)c3)ccc2[nH]1 [Example 109, (2R,3S)-3-Amino-3-[5-(4-cyano-3-fluorophenyl)-1H-benzimidazol-2-yl]-2-methylpropanamide]",56.1 nM
16,"C[C@@H](C(N)=O)[C@H](N)c1nc2c(Cl)c(-c3ccc(C#N)c(F)c3)ccc2[nH]1 [Example 110, (2R,3S)-3-Amino-3-[4-chloro-5-(4-cyano-3-fluorophenyl)-1H-benzimidazol-2-yl]-2-methylpropanamide]",233 nM
